Assay results reported in paper PMC9927415, “Tyrosine Kinase Inhibitors Display Potent Activity against Cryptosporidium parvum” (Microbiology Spectrum, 2022).

How the values were obtained:
Experiment in all cases: KINOMEscan competitive binding, whole panel
panel of 203 kinases [1] = molecular target: T1, panel of 203 kinases (Homo sapiens, UniProt P27361); conditions: 10 µM, n=1; kinase ERK1; read-out: Percent inhibition ERK1
T1 construct: purchased DiscoverX (KINOMEscan)
Text: (§1) The kinases were expressed as fusions to T7 bacteriophage. This is a sensitive, competitive binding assay where test compounds were used to displace immobilized ATP-site binding probe ligands from kinases of interest. The amount of kinase that remained bound to the immobilized probe ligands on the solid support was quantified. Percentage inhibition data were was plotted on kinome trees using the web-based tool KinMap (http://www.kinhub.org/kinmap) ([60]).

panel of 203 kinases [2] = molecular target: T2, panel of 203 kinases (Homo sapiens, UniProt P21709); conditions: 10 µM, n=1; kinase EPHA1; read-out: Percent inhibition EPHA1
T2 construct: purchased DiscoverX (KINOMEscan)
T2 sequence (P21709 26-976): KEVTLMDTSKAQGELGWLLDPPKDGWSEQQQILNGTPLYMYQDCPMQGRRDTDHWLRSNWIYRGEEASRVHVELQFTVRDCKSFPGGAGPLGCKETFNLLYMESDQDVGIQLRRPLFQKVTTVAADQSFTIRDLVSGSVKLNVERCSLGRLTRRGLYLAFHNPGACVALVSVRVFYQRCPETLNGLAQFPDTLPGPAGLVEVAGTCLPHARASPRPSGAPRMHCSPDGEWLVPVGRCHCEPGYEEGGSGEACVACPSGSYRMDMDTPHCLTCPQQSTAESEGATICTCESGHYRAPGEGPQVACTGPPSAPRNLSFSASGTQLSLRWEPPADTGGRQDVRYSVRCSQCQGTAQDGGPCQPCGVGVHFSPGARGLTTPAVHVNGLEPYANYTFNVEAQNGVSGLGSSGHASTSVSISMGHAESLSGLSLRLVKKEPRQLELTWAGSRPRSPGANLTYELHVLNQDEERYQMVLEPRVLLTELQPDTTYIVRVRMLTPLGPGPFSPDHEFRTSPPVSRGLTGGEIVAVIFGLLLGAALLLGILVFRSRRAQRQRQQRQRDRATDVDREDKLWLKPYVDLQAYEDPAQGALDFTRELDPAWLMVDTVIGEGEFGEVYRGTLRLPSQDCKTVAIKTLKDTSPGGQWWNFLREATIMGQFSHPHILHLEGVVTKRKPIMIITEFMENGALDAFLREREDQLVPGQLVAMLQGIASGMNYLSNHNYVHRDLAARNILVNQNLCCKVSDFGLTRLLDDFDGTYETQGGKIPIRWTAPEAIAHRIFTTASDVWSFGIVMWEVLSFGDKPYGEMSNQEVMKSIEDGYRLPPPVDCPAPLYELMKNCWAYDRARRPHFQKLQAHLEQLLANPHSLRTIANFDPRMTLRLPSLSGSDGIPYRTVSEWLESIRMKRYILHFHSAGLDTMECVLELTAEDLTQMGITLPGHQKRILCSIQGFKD
Text: as §1

panel of 203 kinases [3] = molecular target: T3, panel of 203 kinases (Homo sapiens, UniProt P04626); conditions: 10 µM, n=1; kinase ERBB2; read-out: Percent inhibition ERBB2
T3 construct: purchased DiscoverX (KINOMEscan)
T3 sequence (P04626 23-1255): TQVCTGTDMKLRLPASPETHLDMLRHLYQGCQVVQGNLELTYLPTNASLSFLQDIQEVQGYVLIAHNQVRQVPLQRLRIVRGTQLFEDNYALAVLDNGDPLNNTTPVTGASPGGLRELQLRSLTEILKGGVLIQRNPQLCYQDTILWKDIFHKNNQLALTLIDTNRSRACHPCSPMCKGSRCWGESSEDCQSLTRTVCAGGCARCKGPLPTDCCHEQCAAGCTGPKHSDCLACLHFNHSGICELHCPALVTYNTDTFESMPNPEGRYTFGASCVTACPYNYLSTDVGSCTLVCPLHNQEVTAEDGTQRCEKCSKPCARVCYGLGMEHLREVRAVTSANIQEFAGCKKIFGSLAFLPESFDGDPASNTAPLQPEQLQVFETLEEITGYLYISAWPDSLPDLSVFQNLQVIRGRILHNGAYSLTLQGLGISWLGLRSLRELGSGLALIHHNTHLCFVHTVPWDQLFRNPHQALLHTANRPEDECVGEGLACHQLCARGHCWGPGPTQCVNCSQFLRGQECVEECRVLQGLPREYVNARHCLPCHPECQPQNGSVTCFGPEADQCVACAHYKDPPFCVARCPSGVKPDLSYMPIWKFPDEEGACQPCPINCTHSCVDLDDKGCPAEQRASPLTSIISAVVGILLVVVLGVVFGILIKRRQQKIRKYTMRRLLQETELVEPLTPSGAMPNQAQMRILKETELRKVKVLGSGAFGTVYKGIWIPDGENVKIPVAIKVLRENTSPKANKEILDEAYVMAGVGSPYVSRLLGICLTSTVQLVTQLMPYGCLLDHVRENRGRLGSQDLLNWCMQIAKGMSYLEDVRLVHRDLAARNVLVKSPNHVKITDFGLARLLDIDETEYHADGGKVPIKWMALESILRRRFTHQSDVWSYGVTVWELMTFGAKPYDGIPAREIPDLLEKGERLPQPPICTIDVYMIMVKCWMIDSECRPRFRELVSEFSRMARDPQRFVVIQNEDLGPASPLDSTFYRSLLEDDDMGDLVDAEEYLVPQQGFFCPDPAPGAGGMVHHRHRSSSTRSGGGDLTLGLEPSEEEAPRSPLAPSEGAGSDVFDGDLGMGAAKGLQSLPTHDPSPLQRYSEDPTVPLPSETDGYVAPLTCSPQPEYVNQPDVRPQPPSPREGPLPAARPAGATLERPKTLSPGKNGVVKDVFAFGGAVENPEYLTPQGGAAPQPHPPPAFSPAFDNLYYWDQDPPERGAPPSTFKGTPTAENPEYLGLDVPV
Text: as §1

panel of 203 kinases [4] = molecular target: T4, panel of 203 kinases (Homo sapiens, UniProt P11362); conditions: 10 µM, n=1; kinase FGFR1; read-out: Percent inhibition FGFR1
T4 construct: purchased DiscoverX (KINOMEscan)
T4 sequence (P11362 22-822): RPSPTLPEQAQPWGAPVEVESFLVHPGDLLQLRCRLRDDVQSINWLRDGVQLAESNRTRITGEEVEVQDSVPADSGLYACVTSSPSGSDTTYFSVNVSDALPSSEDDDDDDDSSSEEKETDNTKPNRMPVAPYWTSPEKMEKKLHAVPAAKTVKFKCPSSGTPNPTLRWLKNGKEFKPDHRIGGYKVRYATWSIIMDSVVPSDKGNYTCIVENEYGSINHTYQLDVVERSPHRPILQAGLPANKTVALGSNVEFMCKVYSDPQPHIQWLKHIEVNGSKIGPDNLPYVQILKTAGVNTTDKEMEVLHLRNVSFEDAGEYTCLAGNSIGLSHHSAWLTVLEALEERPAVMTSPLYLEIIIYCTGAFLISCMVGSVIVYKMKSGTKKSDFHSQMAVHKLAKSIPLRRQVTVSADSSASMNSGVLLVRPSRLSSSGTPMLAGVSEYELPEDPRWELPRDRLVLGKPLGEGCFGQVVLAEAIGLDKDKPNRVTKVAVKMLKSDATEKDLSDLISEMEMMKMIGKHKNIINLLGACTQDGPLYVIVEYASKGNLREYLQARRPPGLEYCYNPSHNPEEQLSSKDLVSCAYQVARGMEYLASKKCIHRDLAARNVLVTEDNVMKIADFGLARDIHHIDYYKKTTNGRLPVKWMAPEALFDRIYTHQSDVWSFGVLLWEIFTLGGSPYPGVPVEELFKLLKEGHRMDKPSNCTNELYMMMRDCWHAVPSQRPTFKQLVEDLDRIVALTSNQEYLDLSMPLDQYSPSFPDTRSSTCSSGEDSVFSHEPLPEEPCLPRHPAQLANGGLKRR
Text: as §1

panel of 203 kinases [5] = molecular target: T5, panel of 203 kinases (Homo sapiens, UniProt Q13705); conditions: 10 µM, n=1; kinase ACVR2B; read-out: Percent inhibition ACVR2B
T5 construct: purchased DiscoverX (KINOMEscan)
T5 sequence (Q13705 19-512): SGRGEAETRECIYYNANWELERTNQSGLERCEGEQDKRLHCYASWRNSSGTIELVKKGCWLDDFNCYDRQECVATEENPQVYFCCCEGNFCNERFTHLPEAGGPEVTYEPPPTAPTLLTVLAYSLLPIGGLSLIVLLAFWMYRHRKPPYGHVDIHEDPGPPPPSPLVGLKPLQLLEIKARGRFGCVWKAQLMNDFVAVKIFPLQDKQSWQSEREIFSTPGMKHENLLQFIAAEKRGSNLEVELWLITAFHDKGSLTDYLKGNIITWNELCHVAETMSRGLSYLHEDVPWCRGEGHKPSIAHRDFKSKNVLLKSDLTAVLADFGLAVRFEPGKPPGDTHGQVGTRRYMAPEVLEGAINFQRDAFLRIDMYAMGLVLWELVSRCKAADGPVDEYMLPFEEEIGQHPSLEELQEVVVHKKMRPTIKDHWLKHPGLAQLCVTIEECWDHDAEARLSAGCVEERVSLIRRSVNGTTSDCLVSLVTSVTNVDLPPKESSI
Text: as §1

panel of 203 kinases [6] = molecular target: T6, panel of 203 kinases (Homo sapiens, UniProt O95819); conditions: 10 µM, n=1; kinase MAP4K4; read-out: Percent inhibition MAP4K4
T6 construct: purchased DiscoverX (KINOMEscan)
Text: as §1

panel of 203 kinases [7] = molecular target: T7, panel of 203 kinases (Homo sapiens, UniProt Q04771); conditions: 10 µM, n=1; kinase ACVR1; read-out: Percent inhibition ACVR1
T7 construct: purchased DiscoverX (KINOMEscan)
T7 sequence (Q04771 21-509): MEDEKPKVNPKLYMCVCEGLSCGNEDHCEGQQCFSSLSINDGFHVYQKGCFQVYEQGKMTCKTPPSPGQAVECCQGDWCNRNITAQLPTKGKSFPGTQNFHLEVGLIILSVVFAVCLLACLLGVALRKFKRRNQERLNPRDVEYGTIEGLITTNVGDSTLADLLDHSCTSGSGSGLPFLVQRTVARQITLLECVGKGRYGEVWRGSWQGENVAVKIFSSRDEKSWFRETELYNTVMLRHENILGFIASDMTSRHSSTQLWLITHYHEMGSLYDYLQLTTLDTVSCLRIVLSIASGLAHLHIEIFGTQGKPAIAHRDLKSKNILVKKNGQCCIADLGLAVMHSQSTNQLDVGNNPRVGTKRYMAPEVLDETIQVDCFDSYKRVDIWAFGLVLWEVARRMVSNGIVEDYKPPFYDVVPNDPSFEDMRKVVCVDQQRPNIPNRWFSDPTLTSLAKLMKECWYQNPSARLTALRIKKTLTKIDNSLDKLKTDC
Text: as §1

panel of 203 kinases [8] = molecular target: T8, panel of 203 kinases (Homo sapiens, UniProt Q15375); conditions: 10 µM, n=1; kinase EPHA7; read-out: Percent inhibition EPHA7
T8 construct: purchased DiscoverX (KINOMEscan)
T8 sequence (Q15375 28-998): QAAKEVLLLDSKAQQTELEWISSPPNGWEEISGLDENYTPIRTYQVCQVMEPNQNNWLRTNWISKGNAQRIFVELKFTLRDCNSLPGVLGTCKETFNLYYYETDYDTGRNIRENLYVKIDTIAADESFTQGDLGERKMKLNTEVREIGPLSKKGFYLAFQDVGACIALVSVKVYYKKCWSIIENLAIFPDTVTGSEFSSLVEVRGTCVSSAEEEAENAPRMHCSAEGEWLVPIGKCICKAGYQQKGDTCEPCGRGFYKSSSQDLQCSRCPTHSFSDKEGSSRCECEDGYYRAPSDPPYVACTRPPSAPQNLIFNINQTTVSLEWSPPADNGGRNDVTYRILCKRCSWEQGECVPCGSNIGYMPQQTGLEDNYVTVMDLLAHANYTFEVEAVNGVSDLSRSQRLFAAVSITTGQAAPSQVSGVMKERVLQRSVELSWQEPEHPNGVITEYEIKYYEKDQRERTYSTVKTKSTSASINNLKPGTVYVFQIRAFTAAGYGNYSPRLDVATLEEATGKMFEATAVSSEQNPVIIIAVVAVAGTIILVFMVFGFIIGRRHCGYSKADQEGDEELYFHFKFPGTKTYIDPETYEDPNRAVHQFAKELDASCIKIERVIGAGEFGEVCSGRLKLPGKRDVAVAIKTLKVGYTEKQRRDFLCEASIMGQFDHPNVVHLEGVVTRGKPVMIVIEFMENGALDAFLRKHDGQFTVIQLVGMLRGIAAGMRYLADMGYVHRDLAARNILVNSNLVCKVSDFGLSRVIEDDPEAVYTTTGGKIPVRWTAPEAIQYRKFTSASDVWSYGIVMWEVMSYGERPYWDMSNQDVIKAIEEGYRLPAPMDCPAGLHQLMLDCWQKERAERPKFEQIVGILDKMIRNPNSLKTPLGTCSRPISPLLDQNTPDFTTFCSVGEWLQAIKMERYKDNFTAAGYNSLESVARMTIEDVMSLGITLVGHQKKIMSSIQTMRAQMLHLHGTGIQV
Text: as §1

T1 sequence (P27361 whole entry): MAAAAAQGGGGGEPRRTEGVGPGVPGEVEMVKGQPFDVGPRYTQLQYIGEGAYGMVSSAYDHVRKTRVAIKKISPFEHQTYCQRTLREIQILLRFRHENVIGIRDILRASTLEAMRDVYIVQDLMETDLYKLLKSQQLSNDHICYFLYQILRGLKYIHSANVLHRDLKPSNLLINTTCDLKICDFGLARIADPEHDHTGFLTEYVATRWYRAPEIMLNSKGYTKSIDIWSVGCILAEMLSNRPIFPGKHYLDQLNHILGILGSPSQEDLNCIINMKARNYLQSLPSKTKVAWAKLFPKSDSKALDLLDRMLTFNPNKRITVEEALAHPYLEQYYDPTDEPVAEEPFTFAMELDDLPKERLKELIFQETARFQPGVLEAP

SMILES	inhibition at 10 µM (panel of 203 kinases [1])	inhibition at 10 µM (panel of 203 kinases [2])	inhibition at 10 µM (panel of 203 kinases [3])	inhibition at 10 µM (panel of 203 kinases [4])	inhibition at 10 µM (panel of 203 kinases [5])	inhibition at 10 µM (panel of 203 kinases [6])	inhibition at 10 µM (panel of 203 kinases [7])	inhibition at 10 µM (panel of 203 kinases [8])
C[C@@H](Oc1cc(-c2cnc3ccccn23)sc1C(N)=O)c1ccccc1Cl [Compound 8]	83.2%	0%	0%	0%	0%	0%	0%	0%
Cc1ccc(O)cc1N(C)c1ccnc(Nc2cccc(S(N)(=O)=O)c2)n1 [Compound 4]	98.1%	100%	0%	0%	100%	98%	99.9%	100%
COc1cc(Nc2nccc(-c3sc(N)nc3-c3cccc(NC(=O)c4c(F)cccc4F)c3)n2)cc(OC)c1OC [Compound 7]	99.8%	100%	100%	99.7%	97.5%	99.3%	0%	0%
CN1CCN(c2ccc(Nc3nccc(-c4cnn5ncccc45)n3)cc2C#N)CC1 [Compound 1]	98.5%	94.3%	0%	74.1%	0%	80%	98.8%	67.3%
Fc1cccc(COc2ccc(Nc3ncnc4c3CN(CCN3CCOCC3)CC4)cc2Cl)c1 [Compound 6]	0%	0%	86.5%	0%	0%	0%	0%	0%
Cc1ccc(O)cc1Nc1ccnc(Nc2cccc(C(N)=O)c2)n1 [Compound 3]	67.8%	100%	0%	0%	100%	98.2%	99.7%	84%
Clc1ccc(Nc2ncc(-c3ccccc3)s2)cc1 [Compound 10]	0%	0%	0%	0%	0%	0%	0%	0%
COc1ccc(Nc2nccc(-c3cnn4ncccc34)n2)cc1 [Compound 2]	98.5%	92.5%	0%	0%	80.3%	0%	92.1%	74.6%
c1ccc(COc2cccc(-c3ccnc4[nH]ccc34)c2)cc1 [Compound 9]	0%	0%	0%	0%	0%	0%	0%	0%
Nc1ncc2c(-c3ccncc3)c[nH]c2n1 [Compound 11]	0%	0%	0%	0%	65.7%	84.2%	66.2%	0%
